Drawing on patent publication EP4707393A1, “DOUBLE-STRANDED SIRNA, CONJUGATE THEREOF AND USE THEREOF” (CMS Research & Development Pte. Ltd., priority 2023, dated 2024), this text covers EC50 for 16 substances.

This data set has as its system human LPA gene (Genbank number: NM_005577.4). Description: Inhibitory activity against LPA mRNA, psiCHECK-2 dual-luciferase reporter vector in Huh7 cells. The class given is cell-based. The settings on record: Huh7 cells transfected with LPA_psiCHECK-2 plasmid, RNAiMAX transfection. The protocol: A stock solution was prepared by dissolving in PBS and stored at -20 °C.
The human LPA gene (Genbank number: NM_005577.4) was cloned into the psiCHECK™-2 vector.
Huh7 cells were cultured in DMEM (Gibco-11995-065, 500 mL) medium, supplemented with FBS (ExCellBio-FSP500, 57 mL), Penicillin-Streptomycin solution (Hyclone-SV30010, 5.7 mL), GlutaMAX™ (Gibco-35050-061, 5.7 mL) and Non-Essential Amino Acids Solution (Gibco-11140050, 5.7 mL).
On Day 1, a method for transfection of the LPA_PSICHECK (TM)-2 plasmid is briefly described as follows: Huh7 cells were washed with DPBS, followed by digestion with 0.05% trypsin, gently pipetted into single cells in DMEM containing 10% FBS, and counted. Plasmid DNA was transferred into Huh7 cells using Fugene HD. The transfected cells were seeded into 96-well plates at a density of 10,000 cells per well, with 100 µL culture medium per well. The cells were incubated overnight in a 5% CO2 incubator at 37 °C.
On Day 2, the test compounds were diluted serially with PBS to 3 concentrations.
RNAiMAX transfection reagent was prepared by blending homogeneously with Opti-MEM at a ratio of RNAiMAX: Opti-MEM=3:47 in a 15 mL centrifuge tube as needed. The compounds were mixed with the RNAiMAX/Opti-MEM (1:1) and incubated for 15 min. The compound-containing RNAiMAX/Opti-MEM mixture was diluted 10-fold with fresh medium and blended homogeneously.
The medium in each well was aspirated, and then 100 µL of the fresh compound-containing medium was added, and then incubated in a 5% CO2, 37 °C incubator.
Experimental procedures refer to DUAL-GLO® Dual Luciferase Assay System instructions, briefly described as follows: Taking out the cells from the incubator, aspirating and discarding the supernatant, adding 75µL fresh culture medium and 75µL detection reagent, shaking for 10 minutes in the dark, and after the cells had been fully lysed, transfering100µL sample to an opaque whiteboard for detecting the Firefly luminescence signal; adding 50 µL Dual-Glo®Stop & Glo® test reagent to each well and detecting the Renilla luciferase signal after shaking for 10 minutes in the dark. The ratio of the reporter signal to the internal control reporter signal was calculated for each well.
[formula] % Inhibition = (1-Sampleratio/RNAiMAXcontrolratio) × 100% [formula]
(Reporter assays use an easily measured gene product as a stand-in for the process of interest.)
What is called EC50 is the concentration giving half of the maximal effect. Lower therefore signals an effect from little substance. The substance “Z7: siRNA conjugate: sense SEQ ID NO:27, ligand D08 at 3' end of sense strand, antisense SEQ ID NO:58 (sense CCCTTATTGTTATACG; antisense TCGTANAACAATAAGGGGCTGTT; ligand D08 at sense 3' end; listed as RNA; modified_base 1..2: mod_base = OTHER; note = 2'-O-methylcytidine; modified_base 3: mod_base = OTHER; modified_base 4: mod_base = OTHER; note = 2'-O-methyluridine; modified_base 5: mod_base = OTHER; note = 2'-fluorou; modified_base 1: mod_base = OTHER; modified_base 2: mod_base = OTHER; note = 2'-fluorocytidine; note = 2'-O-methylguanosine)” displayed an EC50 of 2.41 nM. Substance “Z8: siRNA conjugate: sense SEQ ID NO:32, ligand D08 at 3' end of sense strand, antisense SEQ ID NO:56 (sense CCCTTATTGTTATACG; antisense ATCCCTCGTANAACAATAAGGGGCTGTT; 2'-OMe/2'-F modified, ligand at sense 3' end, full pattern not given here)” returned an EC50 of 0.81 nM.

“Z9: siRNA conjugate: sense SEQ ID NO:33, ligand D08 at 3' end of sense strand, antisense SEQ ID NO:56 (sense CCCTTATTGTTATACG; antisense ATCCCTCGTANAACAATAAGGGGCTGTT; ligand D08 at sense 3' end; listed as RNA; modified_base 1..2: mod_base = OTHER; note = 2'-O-methylcytidine; modified_base 3: mod_base = OTHER; modified_base 4..5: mod_base = OTHER; note = 2'-O-methyluridine; modified_base 6: mod_base = OTHER; note = 2'-O-me; modified_base 1: mod_base = OTHER; note = 2'-O-methyladenosine; modified_base 2: mod_base = OTHER; note = 2'-O-met)” gave an EC50 of 1.77 nM. Then “Z10: siRNA conjugate: sense SEQ ID NO:34, ligand D08 at 3' end of sense strand, antisense SEQ ID NO:56 (sense CCCTTATTGTTATACG; antisense ATCCCTCGTANAACAATAAGGGGCTGTT; 2'-OMe/2'-F modified, ligand at sense 3' end, full pattern not given here)”, with 2.11 nM; and “Z11: siRNA conjugate: sense SEQ ID NO:27, ligand D08 at 3' end of sense strand, antisense SEQ ID NO:59 (sense CCCTTATTGTTATACG; antisense ATCCCTCGTANAACAATAAGGGGCTGCC; 2'-OMe/2'-F modified, ligand at sense 3' end, full pattern not given here)”, with 0.56 nM; and “Z12: siRNA conjugate: sense SEQ ID NO:27, ligand D08 at 3' end of sense strand, antisense SEQ ID NO:60 (sense CCCTTATTGTTATACG; antisense ATCCCTCGTANAACAATAAGGGGCTG; 2'-OMe/2'-F modified, ligand at sense 3' end, full pattern not given here)”, with 0.32 nM.

Regarding “Z13: siRNA conjugate: sense SEQ ID NO:27, ligand D08 at 3' end of sense strand, antisense SEQ ID NO:61 (sense CCCTTATTGTTATACG; antisense ATCCCTCGTANAACAATAAGGGGCTGTT; 2'-OMe/2'-F modified, ligand at sense 3' end, full pattern not given here)”, it took 0.42 nM to reach a half-maximal effect (EC50). Then “Z14: siRNA conjugate: sense SEQ ID NO:27, ligand D08 at 3' end of sense strand, antisense SEQ ID NO:62 (sense CCCTTATTGTTATACG; antisense ATCCCTCGTANAACAATAAGGGGCTGTT; 2'-OMe/2'-F modified, ligand at sense 3' end, full pattern not given here)”, with 1.59 nM; and “Z15: siRNA conjugate: sense SEQ ID NO:27, ligand D08 at 3' end of sense strand, antisense SEQ ID NO:63 (sense CCCTTATTGTTATACG; antisense ATCCCTCGTANAACAATAAGGGGCTG; 2'-OMe/2'-F modified, ligand at sense 3' end, full pattern not given here)”, with 0.23 nM. The substance “Z17: siRNA conjugate: sense SEQ ID NO:36, ligand D01 at 3' end of sense strand, antisense SEQ ID NO:63 (sense NNCCCCTTATTGTTATACN; antisense ATCCCTCGTANAACAATAAGGGGCTG; 2'-OMe/2'-F modified, ligand at sense 3' end, full pattern not given here)” came in with an EC50 of 1.5 nM. Substance “Z18: siRNA conjugate: sense SEQ ID NO:36, ligand D01 at 3' end of sense strand, antisense SEQ ID NO:61 (sense NNCCCCTTATTGTTATACN; antisense ATCCCTCGTANAACAATAAGGGGCTGTT; 2'-OMe/2'-F modified, ligand at sense 3' end, full pattern not given here)” displayed a concentration for a half-maximal effect (EC50) of 0.25 nM. Substance “Z20: siRNA conjugate: sense SEQ ID NO:27, ligand D01 at 3' end of sense strand, antisense SEQ ID NO:56 (sense CCCTTATTGTTATACG; antisense ATCCCTCGTANAACAATAAGGGGCTGTT; 2'-OMe/2'-F modified, ligand at sense 3' end, full pattern not given here)” had an EC50 of 0.51 nM. Then “Z21: siRNA conjugate: sense SEQ ID NO:36, ligand D01 at 3' end of sense strand, antisense SEQ ID NO:64 (sense NNCCCCTTATTGTTATACN; antisense TCTCGTANAACAATAAGGGGCTGTT; 2'-OMe/2'-F modified, ligand at sense 3' end, full pattern not given here)”, with 0.44 nM; and “Z22: siRNA conjugate: sense SEQ ID NO:38, ligand D18 at 3' end of sense strand, antisense SEQ ID NO:64 (sense NNCCCCTTATTGTTATACNA; antisense TCTCGTANAACAATAAGGGGCTGTT; 2'-OMe/2'-F modified, ligand at sense 3' end, full pattern not given here)”, with 0.28 nM; and “Z23: siRNA conjugate: sense SEQ ID NO:39, ligand D18 at 3' end of sense strand, antisense SEQ ID NO:64 (sense NNCCCCTTATTGTTATACGN; antisense TCTCGTANAACAATAAGGGGCTGTT; 2'-OMe/2'-F modified, ligand at sense 3' end, full pattern not given here)”, with 0.12 nM. Regarding “Z25: siRNA conjugate: sense SEQ ID NO:41, ligand D18 at 3' end of sense strand, antisense SEQ ID NO:64 (sense NNCCCCTTATTGTTATACGNGA; antisense TCTCGTANAACAATAAGGGGCTGTT; ligand D18 at sense 3' end; listed as RNA; modified_base 1: mod_base = OTHER; note = n is invAb; modified_base 2: mod_base = OTHER; note = n is R; modified_base 3..6: mod_base = OTHER; note = 2'-O-methylcytidine; modified_base 7: mod_base = OTHER; note = 2'-O-methyluridine; modified_ba; modified_base 3: mod_base = OTHER; modified_base 4: mod_base = OTHER; note = 2'-fluorocytidine; modified_base 5: mod_base = OTHER; note = 2'-O-methylg)”, the EC50 amounted to 0.68 nM.
